Values of other authors in US20020035459A1, “PHARMACOKINETIC-BASED DRUG DESIGN TOOL AND METHOD” (priority 1998, published 2002).

Tests used:
rabbit intestinal tissue = conditions: donor concentration per compound; for Pe Colon: rabbit colon; for Pe Duodenum: rabbit duodenum; for Pe Ileum: rabbit ileum; for Pe Jejunum: rabbit jejunum
intestinal mucosa = conditions: permeability standards
[1] = plasma kinetics, first order transfer

Row | Pe Colon (rabbit intestinal tissue) [×10⁻⁶ cm/s] | Pe Duodenum (rabbit intestinal tissue) [×10⁻⁶ cm/s] | Pe Ileum (rabbit intestinal tissue) [×10⁻⁶ cm/s] | Pe Jejunum (rabbit intestinal tissue) [×10⁻⁶ cm/s] | Transport mechanism (intestinal mucosa) | k21 [1] | Compound
1 | 9.28 | 4.55 | 14.5 | 10.2 | Carrier-mediated Influx | – | O=C[C@H](O)[C@@H](O)[C@H](O)[C@H](O)CO [D-glucose]
2 | 5.53 | 1.73 | 4.02 | 3.54 | Passive Paracellular | – | OC[C@@H](O)[C@@H](O)[C@H](O)[C@H](O)CO [mannitol]
3 | 3.85 | 0.3 | 2.91 | 1.31 | – | – | C[C@]12CCC(=O)C=C1CC[C@@H]1[C@@H]2[C@@H](O)C[C@@]2(C)[C@H]1CC[C@]2(O)C(=O)CO [hydrocortisone]
4 | – | – | – | – | – | 0.670 | Nc1nc2c(ncn2COC(CO)CO)c(=O)[nH]1.[Na] [Gancyclovir, 9-(1,3-dihydroxy-2-propoxymethyl)guanine, monosodium salt]
